Key:
CEH = conditions: prior art statement; cited from earlier work
[1] = molecular target: T1, cholesterol ester hydrolase (CEH) (Bos taurus, UniProt P30122); assay: In vitro inhibition of cholesteryl ester formation by cholesterol esterase (CEH); assay type: biochemical; conditions: 37° C.; cholesterol and oleic acid; cholesterol esterase from bovine pancreas
T1 construct: purchased Sigma Company, St. Louis, Mo., U.S.A. C-1892; host or cells: bovine pancreas
Method: The ability of the compounds of this invention to inhibit the formation of cholesteryl esters and thereby interfere with and prevent assimilation of cholesterol into the lymphatic system and ultimately the blood stream was established by incubating the compounds at 37° C. with a mixture of cholesterol and oleic acid in the presence of buffered cholesterol esterase [(EC 3.1.1.13) Sigma Company, St. Louis, Mo., U.S.A., No. C-1892, from bovine pancreas] and measuring the amount of ester formed, according to the procedure of Field, J. of Lipid Research, 25, 389 (1984).

[2] = system: absorption of 14C-cholesterol; assay: In vivo cholesterol absorption in normal rats (serum radioactivity after oral [4-14C] cholesterol); conditions: serum radioactivity at 6 hr, vs control
Method: The in vivo cholesterol absorption studies were conducted in normal rats by oral administration of the compound being tested in propylene glycol and olive oil followed by oral administration of [4-^14 C] cholesterol in propylene glycol and olive oil, otherwise following the procedure of Cayen et al., J. Lipid Res. 20, 162 (1979). The serum radioactivity was measured at six hours after dosing. The results of this study are reported in Table I as percent decrease compared to control.

T1 sequence (P30122 19-597): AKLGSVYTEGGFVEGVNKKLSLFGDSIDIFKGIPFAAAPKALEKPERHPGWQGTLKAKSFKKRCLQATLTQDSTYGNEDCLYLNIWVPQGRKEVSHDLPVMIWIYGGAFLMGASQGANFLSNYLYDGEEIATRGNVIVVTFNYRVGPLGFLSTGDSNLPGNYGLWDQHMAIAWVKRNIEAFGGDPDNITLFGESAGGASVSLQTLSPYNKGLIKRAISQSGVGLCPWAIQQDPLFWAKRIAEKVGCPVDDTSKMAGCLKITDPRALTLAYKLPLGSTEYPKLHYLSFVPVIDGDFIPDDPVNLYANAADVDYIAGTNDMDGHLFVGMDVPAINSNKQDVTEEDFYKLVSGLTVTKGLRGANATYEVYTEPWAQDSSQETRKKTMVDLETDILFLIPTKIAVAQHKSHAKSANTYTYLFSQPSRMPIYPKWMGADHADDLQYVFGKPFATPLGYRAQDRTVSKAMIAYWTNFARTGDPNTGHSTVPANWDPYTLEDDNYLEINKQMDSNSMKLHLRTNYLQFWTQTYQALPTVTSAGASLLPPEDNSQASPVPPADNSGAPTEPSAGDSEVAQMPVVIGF

Row | SMILES | CEH inhibitor (in words) (CEH) | IC50 [1] | Effect on Absorption of ^14 C-chol-6 hr-normal rat, % Decrease ([2]; 10 mg/kg) | Effect on Absorption of ^14 C-chol-6 hr-normal rat, % Decrease ([2]; 3 mg/kg)
1 | CNC(=O)OC1CCN(C(=O)Oc2ccc(Oc3ccccc3)cc2)CC1 [4-[[methylamino)carbonyl]oxy]-1-piperidinecarboxylic acid 4-phenoxyphenyl ester] | CEH inhibitor |  |  | 
2 | O=C(Oc1ccc2oc3ccccc3c2c1)N1CCSCC1 [Example 2, 4-Thiomornholinecarboxylic acid 2-dibenzofuranyl ester] |  | 0.51 µM | 16% | 
3 | CC1(C)CCN(C(=O)Oc2ccc3oc4ccccc4c3c2)CC1 [Example 3, 4,4-Dimethyl-1-piperidinecarboxylic acid 2-dibenzofuranyl ester] |  | 6.5 µM |  | 44%
4 | O=C(Oc1ccc2oc3ccccc3c2c1)N1CCC2(CCCC2)CC1 [Example 4, 8-Azaspiro[4,5]decane-8-carboxylic acid 2-dibenzofuranyl ester] |  | 15 µM |  | 55%

From patent publication US5373009A, “Dibenzofuranyl esters of N-heterocyclic carboxylic acids” (priority 1994, dated 1994)
